Test results from ChEMBL document CHEMBL1201862, “PubChem BioAssay data set” (2004).
Active and inactive are the calls of the source.

Experiments:
[1] = molecular target: T1, Calpain-2 catalytic subunit (Sus scrofa, UniProt P43367); test: pig calpain II inhibitor potency, dose response, biochemical, fluorogenic peptide substrate (AID 1420); type: functional
T1 sequence (P43367 whole entry): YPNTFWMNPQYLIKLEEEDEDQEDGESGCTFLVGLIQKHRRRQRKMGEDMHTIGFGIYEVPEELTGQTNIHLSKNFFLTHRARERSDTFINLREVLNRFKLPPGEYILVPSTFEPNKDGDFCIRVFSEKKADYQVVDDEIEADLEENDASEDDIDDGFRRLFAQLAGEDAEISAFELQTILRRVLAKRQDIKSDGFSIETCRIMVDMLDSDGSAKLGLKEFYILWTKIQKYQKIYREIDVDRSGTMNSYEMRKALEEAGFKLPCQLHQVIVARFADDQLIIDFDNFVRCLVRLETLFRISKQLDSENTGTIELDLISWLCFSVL

[2] = HepG2 cell cytotoxicity, dose response, cytotoxicity control for Shn3 inhibitor project, CellTiter-Glo, cherry-picked (AID 624134); type: functional, cell-based
[3] = control 3'UTR Renilla luciferase suppression, dose response, counter-screen for Shn3 inhibitor project, cell-based, Clone20-Shn3RL, cherry-picked (AID 624133); type: functional
[4] = Shn3 3'UTR reporter inhibitors, dose response, cell-based, Clone20 osteoblasts, firefly luciferase, cherry-picked (AID 624132); type: functional;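 note: firefly luciferase luminescence from reporter carrying the Shn3 3'UTR in osteoblasts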
[5] = molecular target: T2, Leucine aminopeptidase (Plasmodium falciparum 3D7, UniProt Q8IL11); test: P. falciparum M17LAP inhibitors, primary screen, biochemical, fluorogenic H-Leu-NHMec substrate, 1536-well (AID 1619); type: functional
T2 sequence (Q8IL11 whole entry): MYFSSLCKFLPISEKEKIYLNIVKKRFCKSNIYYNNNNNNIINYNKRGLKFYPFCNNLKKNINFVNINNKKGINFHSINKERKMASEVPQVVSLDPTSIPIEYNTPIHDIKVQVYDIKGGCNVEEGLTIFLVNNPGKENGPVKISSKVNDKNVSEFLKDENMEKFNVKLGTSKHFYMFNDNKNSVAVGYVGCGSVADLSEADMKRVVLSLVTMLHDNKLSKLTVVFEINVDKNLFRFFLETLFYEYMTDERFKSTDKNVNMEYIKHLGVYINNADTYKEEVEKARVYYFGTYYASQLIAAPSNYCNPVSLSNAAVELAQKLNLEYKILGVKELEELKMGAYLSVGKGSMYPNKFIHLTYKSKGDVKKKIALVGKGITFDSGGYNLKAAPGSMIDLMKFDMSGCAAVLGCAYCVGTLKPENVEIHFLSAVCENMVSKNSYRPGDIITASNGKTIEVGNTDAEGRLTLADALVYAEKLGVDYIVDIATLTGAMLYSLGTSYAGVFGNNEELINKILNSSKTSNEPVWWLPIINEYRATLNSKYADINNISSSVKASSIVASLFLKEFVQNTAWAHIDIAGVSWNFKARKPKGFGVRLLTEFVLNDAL

[6] = system: INS1; test: beta cell apoptosis inhibitors, cytokine rescue, dose response, luminescence, retest (AID 449756); type: functional, cell-based; conditions: Rattus norvegicus;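 note: cell death triggered by IL-1 beta plus TNF-alpha plus IFN-gamma mixture; protective hits raise ATP signal compared with cytokine alone wells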
[7] = system: H9c2; test: cells; type: functional, cell-based; conditions: Rattus norvegicus, H9c2, Myocardium;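 note: confirmatory concentration-response retest of ultra-high-throughput screening hits for modulation of myocardial damage; cell death induced by hydrogen peroxide oxidative stress; compound pretreatment for 60 min then peroxide exposure for 2 h; potency is for protecting the cells against peroxide damage rather than for killing them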
[8] = molecular target: T3, Polyadenylate-binding protein 1 (Homo sapiens, UniProt P11940); test: PABP1 MLLE–PAM2 interaction inhibitors, dose response, miRNA deadenylation inhibitor project, biochemical, fluorescence polarization, Cy5-PAM2 peptide, secondary (AID 602260); type: functional; conditions: read-out: IC50_Mean
[9] = molecular target: T3, Polyadenylate-binding protein 1; test: PABP1 MLLE–PAM2 binding inhibitor potency, dose response, biochemical, fluorescence polarization, FITC-PAM2 peptide (AID 602259); type: functional; conditions: read-out: IC50_Mean
[10] = molecular target: Induced myeloid leukemia cell differentiation protein Mcl-1 (Homo sapiens, UniProt Q07820); type: functional
[11] = molecular target: Eukaryotic translation initiation factor 4E (Mus musculus, UniProt P63073); test: eIF4E–eIF4G protein interaction inhibitors, dose response, biochemical, TR-FRET (AID 855); type: functional;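 note: potency for disrupting eIF4E binding to eIF4GI seen as loss of FRET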
[12] = molecular target: Cytochrome P450 2C19 (Homo sapiens, UniProt P33261); test: Cytochrome panel assay with activity outcomes. Panel member name: p450-cyp2c19 Compounds with AC50 equal or less than 10 uM are considered active; type: functional; conditions: read-out: AC50
[13] = molecular target: Cytochrome P450 3A4 (Homo sapiens, UniProt P08684);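 note: CYP3A4 tested as one member of a cytochrome P450 panel screen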
[14] = molecular target: Glyceraldehyde-3-phosphate dehydrogenase (Homo sapiens, UniProt P04406)
[15] = off-target signal loss in HeLa-CEM21 co-culture – HeLa F-luc CTL cells, cherry-picked, counter-screen for HIV-1 Env fusion inhibitor project, dose response (AID 652040); type: functional, cell-based;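 note: potency for signal decrease marking cytotoxic or nonspecific inhibition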
[16] = ZM109 Env clade C HIV-1 fusion inhibitors, dose response, HeLa effector, CEM target cells, luciferase, cherry-pick (AID 652058); type: functional, cell-based
[17] = inhibitors of HIV Env-driven cell fusion, dose response, cherry-pick (AID 652057); type: functional, cell-based
[18] = inhibitors of clade B AD8 Env fusion, dose response, cell-based, cherry-pick (AID 652062); type: functional;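 note: luciferase signal from cell-cell fusion driven by HIV-1 clade B AD8 Env; potency is for inhibitors of fusion seen as a drop in luminescence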

Sequence of Glyceraldehyde-3-phosphate dehydrogenase (P04406 whole entry, the tested form may be a part): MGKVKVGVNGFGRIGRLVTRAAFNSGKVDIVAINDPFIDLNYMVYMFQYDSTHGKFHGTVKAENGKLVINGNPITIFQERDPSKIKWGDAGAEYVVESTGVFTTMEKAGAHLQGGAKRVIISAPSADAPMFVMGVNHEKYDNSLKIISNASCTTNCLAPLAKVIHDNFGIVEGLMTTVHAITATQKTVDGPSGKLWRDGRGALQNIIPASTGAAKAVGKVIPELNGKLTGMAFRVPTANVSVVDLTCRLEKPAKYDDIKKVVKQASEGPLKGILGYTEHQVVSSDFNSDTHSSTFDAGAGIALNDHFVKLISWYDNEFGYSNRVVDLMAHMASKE
T3 sequence (P11940 whole entry): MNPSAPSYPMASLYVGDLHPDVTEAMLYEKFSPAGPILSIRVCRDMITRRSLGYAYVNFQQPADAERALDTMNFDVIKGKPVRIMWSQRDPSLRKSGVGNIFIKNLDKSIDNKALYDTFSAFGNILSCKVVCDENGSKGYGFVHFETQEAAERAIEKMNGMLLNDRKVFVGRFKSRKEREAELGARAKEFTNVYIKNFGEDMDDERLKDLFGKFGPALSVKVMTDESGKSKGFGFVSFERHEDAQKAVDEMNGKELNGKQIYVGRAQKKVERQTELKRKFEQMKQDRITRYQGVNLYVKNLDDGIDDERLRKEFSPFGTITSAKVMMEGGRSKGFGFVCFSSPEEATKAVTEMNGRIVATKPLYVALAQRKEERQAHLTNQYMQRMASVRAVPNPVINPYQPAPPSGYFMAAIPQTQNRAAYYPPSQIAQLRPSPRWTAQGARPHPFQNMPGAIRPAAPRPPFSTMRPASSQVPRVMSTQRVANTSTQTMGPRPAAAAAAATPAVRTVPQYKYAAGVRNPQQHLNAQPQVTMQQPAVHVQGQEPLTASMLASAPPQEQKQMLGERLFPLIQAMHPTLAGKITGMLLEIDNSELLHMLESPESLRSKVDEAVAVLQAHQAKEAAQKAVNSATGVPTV
Sequence of Induced myeloid leukemia cell differentiation protein Mcl-1 (Q07820 whole entry): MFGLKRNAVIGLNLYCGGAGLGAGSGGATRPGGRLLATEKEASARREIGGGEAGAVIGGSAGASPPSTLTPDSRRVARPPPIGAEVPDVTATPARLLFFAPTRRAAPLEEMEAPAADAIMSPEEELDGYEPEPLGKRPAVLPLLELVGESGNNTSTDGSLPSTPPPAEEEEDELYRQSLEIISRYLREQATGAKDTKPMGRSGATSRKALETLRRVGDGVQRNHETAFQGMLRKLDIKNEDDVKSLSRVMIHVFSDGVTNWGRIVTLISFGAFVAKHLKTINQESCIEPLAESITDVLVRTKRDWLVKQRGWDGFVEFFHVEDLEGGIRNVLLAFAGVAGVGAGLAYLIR
Sequence of Cytochrome P450 3A4 (P08684 whole entry): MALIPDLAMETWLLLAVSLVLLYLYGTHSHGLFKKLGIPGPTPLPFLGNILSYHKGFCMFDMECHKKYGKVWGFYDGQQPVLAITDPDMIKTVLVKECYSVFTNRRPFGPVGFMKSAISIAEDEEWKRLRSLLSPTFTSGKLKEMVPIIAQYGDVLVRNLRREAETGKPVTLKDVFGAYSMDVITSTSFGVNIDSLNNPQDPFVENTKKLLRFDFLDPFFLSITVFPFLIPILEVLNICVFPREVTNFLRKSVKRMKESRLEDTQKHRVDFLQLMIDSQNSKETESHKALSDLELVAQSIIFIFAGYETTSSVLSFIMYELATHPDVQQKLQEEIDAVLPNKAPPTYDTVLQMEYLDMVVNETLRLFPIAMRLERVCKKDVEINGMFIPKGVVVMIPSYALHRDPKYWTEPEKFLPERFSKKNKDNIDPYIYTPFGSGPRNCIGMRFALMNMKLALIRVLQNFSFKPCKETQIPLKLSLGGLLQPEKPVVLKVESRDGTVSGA
Sequence of Cytochrome P450 2C19 (P33261 whole entry): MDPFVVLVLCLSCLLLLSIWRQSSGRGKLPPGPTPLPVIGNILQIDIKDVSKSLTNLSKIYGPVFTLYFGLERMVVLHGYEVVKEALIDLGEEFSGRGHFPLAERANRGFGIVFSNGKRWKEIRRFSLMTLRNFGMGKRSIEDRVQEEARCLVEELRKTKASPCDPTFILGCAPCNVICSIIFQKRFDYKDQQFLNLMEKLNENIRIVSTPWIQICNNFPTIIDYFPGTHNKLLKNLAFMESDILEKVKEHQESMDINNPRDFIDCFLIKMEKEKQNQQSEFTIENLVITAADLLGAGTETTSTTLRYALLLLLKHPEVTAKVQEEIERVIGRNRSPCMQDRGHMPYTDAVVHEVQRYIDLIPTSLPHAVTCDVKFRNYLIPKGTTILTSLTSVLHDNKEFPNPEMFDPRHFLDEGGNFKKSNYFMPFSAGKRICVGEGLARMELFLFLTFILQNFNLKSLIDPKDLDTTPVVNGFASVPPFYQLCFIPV
Sequence of Eukaryotic translation initiation factor 4E (P63073 whole entry): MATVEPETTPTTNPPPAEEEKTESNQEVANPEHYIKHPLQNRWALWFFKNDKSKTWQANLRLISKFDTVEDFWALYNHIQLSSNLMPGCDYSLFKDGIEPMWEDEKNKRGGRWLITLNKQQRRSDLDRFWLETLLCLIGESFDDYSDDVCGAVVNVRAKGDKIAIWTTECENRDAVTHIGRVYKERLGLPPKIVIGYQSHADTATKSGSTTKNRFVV

For `COc1ccccc1NC(=O)C12CC3CC(C1)CC(c1ccc(C)cc1)(C3)C2`, the IC50 [1] was 3.42 µM (not active).

For `CC(C)C[C@H]1CN=C(N(C)C)N1CC1CCCCCC1`, the AC50 [2] was > 70 µM (inactive), the AC50 [3] was 9.97 µM (active) and the AC50 [4] was 5.03 µM (active).

With `COc1ccc(CC(CC(=O)O)C(=O)Nc2ccc(OC)cc2)cc1` (stereo not given) the IC50 [5] was 8.96 µM (active).

For `CCCCCCSc1ccc([C@H]2N[C@@](Cc3ccccc3)(C(=O)OC)[C@H]3C(=O)N(C)C(=O)[C@@H]23)cc1`, the AC50 [6] was 14.1 µM (active) and the IC50 [7] was > 79 µM (inactive).

For `Cc1cccc(NC(=O)NC(=S)NC(=O)c2ccccc2)c1`, the IC50 [8] was > 66 µM (inactive) and the IC50 [9] was > 66 µM (inactive).

For `O=C(O)CCN1C(=O)/C(=C/c2cn(-c3ccccc3)nc2-c2cccs2)SC1=S`, the IC50 [5] was 3.05 µM (active), the IC50 [10] was 3.24 µM (not active) and the IC50 [11] was 50 µM (inactive).

For `COc1ccc(N(C(=O)c2cccnc2)S(=O)(=O)c2cccs2)cc1`, the IC50 [7] was > 79 µM (inactive).

With `COc1cc2c(cc1[N+](=O)[O-])n(C(C)C)c(=O)n2C(C)C` the IC50 [1] was > 50 µM (not active).

In the case of `COc1ccc(NC(=O)CSc2nnc(CCC(=O)O)c(=O)n2N)cc1`, the IC50 [8] was > 66 µM (inactive) and the IC50 [9] was > 66 µM (inactive).

With `CC1(C(=O)NCc2ccc(Cl)c(Cl)c2)Oc2ccccc2NC1=O` (stereo not given) the IC50 [1] was 5.76 µM (not active).

In the case of `O=C(NC(=S)NC1CCSC1=O)c1ccc([N+](=O)[O-])cc1` (stereo not given), the IC50 [8] was > 66 µM (inactive) and the IC50 [9] was > 66 µM (inactive).

With `O=C(Nc1cccc(C(F)(F)F)c1)c1cccn(Cc2ccc3c(c2)OC(F)(F)O3)c1=O` the IC50 [1] was > 50 µM (not active), the AC50 [12] was 2.24 µM (inconclusive) and the AC50 [13] was 25.1 µM (inconclusive).

With `O=C(O)CSc1cccc2c(SCC(=O)O)cccc12` the IC50 [14] was > 100 µM (not active).

With `CCCN1C=CC(=C/C=C(\C#N)C(=O)OCC)C=C1` the IC50 [5] was 91.5 µM (active).

For `Oc1nc(S)nc2c1CN(Cc1ccc(F)cc1)CC2`, the IC50 [8] was > 66 µM (inactive) and the IC50 [9] was > 66 µM (inactive).

With `Cc1cc(C(=O)CSc2nc[nH]n2)c(C)n1-c1cccc(S(=O)(=O)N2CCOCC2)c1` the IC50 [5] was 22.8 µM (active).

With `O=C(c1cc([N+](=O)[O-])ccc1N1CCOCC1)N1CCCCC1` the IC50 [1] was > 50 µM (not active).

For `CCOc1ncccc1C(=O)Nc1nnc(C)s1`, the IC50 [1] was > 50 µM (not active).

With `O=C(O)C1CC=CCC1C(=O)NCCc1cccc(Cl)c1` (stereo not given) the IC50 [5] was 11.8 µM (active).

With `Cc1cc(C)n2nc(SCC(=O)c3cc(C)n(-c4cc(C)on4)c3C)nc2n1` the AC50 [2] was > 70 µM (inactive), the AC50 [3] was 3.28 µM (active) and the AC50 [4] was 2.46 µM (active).

In the case of `CC(C)c1c(O)nc(SCC(=O)Nc2ccc3c(c2)CCC3)[nH]c1=O`, the IC50 [5] was 8.08 µM (active).

With `CCOC(=O)c1c(NC(=O)C2C3C=CC(CC3)C2C(=O)O)sc(C)c1CC` (stereo not given) the IC50 [5] was 13.2 µM (active).

In the case of `CCC(C)NC(=O)[C@H]1N2C(=O)c3c(ccc(OC)c3OC)C2SC1(C)C` (stereo not given in full), the IC50 [8] was > 66 µM (inactive) and the IC50 [9] was > 66 µM (inactive).

In the case of `O=C(CSc1ccccn1)Nc1ccc(O)c(C(=O)O)c1`, the IC50 [14] was > 100 µM (not active).

In the case of `CC1(C)CC2CC(C)(CN2S(=O)(=O)c2cccc(C(=O)OCC(=O)NC(N)=O)c2)C1` (stereo not given), the AC50 [15] was 6.33 µM (active), the AC50 [16] was 6.73 µM (active) and the AC50 [17] was 6.32 µM (active). For the same compound, the AC50 [18] was 13.8 µM (active).

For `O=C1C(Cl)=C(N2CCN(C/C=C/c3ccccc3)CC2)C(=O)N1c1ccc(Cl)nc1`, the IC50 [14] was > 50 µM (inconclusive).

With `Cc1nc2sccn2c1-c1csc(NCc2ccccc2)n1` the AC50 [15] was 24 µM (active), the AC50 [16] was 10.1 µM (active) and the AC50 [17] was 15.4 µM (active). For the same compound, the AC50 [18] was 10.7 µM (active).

With `O=C(NCc1cccnc1)c1cnc2cc3c(cc2c1O)OCCO3` the AC50 [15] was < 0.26 µM (active) and the AC50 [18] was 1.22 µM (active).

For `Cn1nc(C(F)(F)F)c2cc(NC(=O)OCc3ccc(F)cc3)sc21`, the IC50 [1] was 6.72 µM (active).

For `COc1cccc(N2CC(C(=O)NCc3nnc(O)c4ccccc34)CC2=O)c1` (stereo not given), the IC50 [7] was > 79 µM (inactive).

With `CCC1(c2ccccc2)NC(=O)N(CC(=O)Nc2cc(S(=O)(=O)N3CCCCC3)ccc2OC(C)C)C1=O` (stereo not given) the AC50 [15] was 5.57 µM (active), the AC50 [16] was 3.02 µM (active) and the AC50 [17] was 1.8 µM (active). For the same compound, the AC50 [18] was 14.7 µM (active).

In the case of `Cc1cc(Cl)ccc1OCCCC(=O)Nc1cc(S(=O)(=O)N2CCOCC2)ccc1N1CCOCC1`, the AC50 [15] was 4.73 µM (active), the AC50 [16] was 5.3 µM (active) and the AC50 [17] was 2.05 µM (active). For the same compound, the AC50 [18] was 7.34 µM (active).

For `CC(=O)c1cccc(S(=O)(=O)NC2CCSc3ccccc32)c1` (stereo not given), the IC50 [8] was > 66 µM (inactive) and the IC50 [9] was > 66 µM (inactive).

In the case of `CCN(CC(=O)Nc1ccc(OC)cc1)C(=O)CSCc1c(C)noc1C`, the IC50 [8] was > 66 µM (inactive) and the IC50 [9] was > 66 µM (inactive).

For `CC(C)(C)N1C(=O)[C@H]2[C@@H](c3ccc(Br)cc3)N3C(=O)N(c4ccccc4)C(=O)[C@@]3(C)[C@H]2C1=O`, the AC50 [15] was 1.18 µM (active), the AC50 [16] was 1.08 µM (active) and the AC50 [17] was 1.13 µM (active). The AC50 [18] was 1.83 µM (active).

For `O=c1[nH]nc(Sc2ccccc2)c(=S)[nH]1`, the IC50 [8] was > 66 µM (inactive) and the IC50 [9] was > 66 µM (inactive).

For `CC1=NNC(=O)C1CCC(=O)N/N=C(\C)c1ccccc1` (stereo not given), the IC50 [5] was 36.6 µM (active).
